Measured values: PubChem BioAssay (NCI)
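Briefly, cells in 96-well plates were exposed to five compound concentrations for 48 h, and endpoints were estimated by linear interpolation. TGI marks complete inhibition of growth.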

Legend:
Test in all cases: inhibition of tumour cell growth, NCI panel, 48 h
786-0 renal = test system: 786-0 renal
A549 NSCLC = test system: A549 NSCLC
ACHN renal = test system: ACHN renal
BT-549 breast = test system: BT-549 breast
CAKI-1 renal = test system: CAKI-1 renal
CCRF-CEM leukemia = test system: CCRF-CEM leukemia
COLO 205 colon = test system: COLO 205 colon
DU-145 prostate = test system: DU-145 prostate
EKVX NSCLC = test system: EKVX NSCLC
HCC-2998 colon = test system: HCC-2998 colon
HCT-116 colon = test system: HCT-116 colon
HCT-15 colon = test system: HCT-15 colon
HL-60(TB) leukemia = test system: HL-60(TB) leukemia
HOP-62 NSCLC = test system: HOP-62 NSCLC
HS 578T breast = test system: HS 578T breast
IGROV1 ovarian = test system: IGROV1 ovarian
K-562 leukemia = test system: K-562 leukemia
KM12 colon = test system: KM12 colon
M14 melanoma = test system: M14 melanoma
MCF7 breast = test system: MCF7 breast
MDA-MB-231 breast = test system: MDA-MB-231 breast
MDA-MB-435 = test system: MDA-MB-435
MDA-N = test system: MDA-N
MOLT-4 leukemia = test system: MOLT-4 leukemia
NCI-H226 lung = test system: NCI-H226 lung
NCI-H23 lung = test system: NCI-H23 lung
NCI-H460 lung = test system: NCI-H460 lung
NCI-H522 lung = test system: NCI-H522 lung
NCI/ADR-RES ovarian = test system: NCI/ADR-RES ovarian
OVCAR-3 ovarian = test system: OVCAR-3 ovarian
OVCAR-4 ovarian = test system: OVCAR-4 ovarian
OVCAR-8 ovarian = test system: OVCAR-8 ovarian
PC-3 prostate = test system: PC-3 prostate
RPMI-8226 leukemia = test system: RPMI-8226 leukemia
RXF 393 renal = test system: RXF 393 renal
SF-268 CNS = test system: SF-268 CNS
SF-295 CNS = test system: SF-295 CNS
SF-539 CNS = test system: SF-539 CNS
SK-MEL-28 melanoma = test system: SK-MEL-28 melanoma
SK-MEL-5 melanoma = test system: SK-MEL-5 melanoma
SK-OV-3 ovarian = test system: SK-OV-3 ovarian
SN12C renal = test system: SN12C renal
SNB-19 CNS = test system: SNB-19 CNS
SNB-75 CNS = test system: SNB-75 CNS
SR leukemia = test system: SR leukemia
SW-620 colon = test system: SW-620 colon
T-47D breast = test system: T-47D breast
TK-10 renal = test system: TK-10 renal
U251 CNS = test system: U251 CNS
UACC-257 melanoma = test system: UACC-257 melanoma
UACC-62 melanoma = test system: UACC-62 melanoma
UO-31 renal = test system: UO-31 renal
HOP-92 NSCLC = test system: HOP-92 NSCLC
HT29 colon = test system: HT29 colon
LOX IMVI melanoma = test system: LOX IMVI melanoma
MALME-3M melanoma = test system: MALME-3M melanoma
OVCAR-5 ovarian = test system: OVCAR-5 ovarian
SK-MEL-2 melanoma = test system: SK-MEL-2 melanoma

## CC(=O)Oc1ccc2c(c1)O/C(=C\c1ccc(O)cc1)C2=O
786-0 renal
  TGI: > 100 µM
A549 NSCLC
  TGI: > 100 µM
ACHN renal
  TGI: > 100 µM
BT-549 breast
  TGI: > 100 µM
CAKI-1 renal
  TGI: > 100 µM
CCRF-CEM leukemia
  TGI: > 100 µM
COLO 205 colon
  TGI: > 100 µM
DU-145 prostate
  TGI: > 100 µM
EKVX NSCLC
  TGI: > 100 µM
HCC-2998 colon
  TGI: > 100 µM
HCT-116 colon
  TGI: > 100 µM
HCT-15 colon
  TGI: > 100 µM
HL-60(TB) leukemia
  TGI: > 100 µM
HOP-62 NSCLC
  TGI: > 100 µM
HS 578T breast
  TGI: > 100 µM
IGROV1 ovarian
  TGI: > 100 µM
K-562 leukemia
  TGI: > 100 µM
KM12 colon
  TGI: > 100 µM
M14 melanoma
  TGI: > 100 µM
MCF7 breast
  TGI: > 100 µM
MDA-MB-231 breast
  TGI: > 100 µM
MDA-MB-435
  TGI: > 100 µM
MDA-N
  TGI: > 100 µM
MOLT-4 leukemia
  TGI: > 100 µM
NCI-H226 lung
  TGI: > 100 µM
NCI-H23 lung
  TGI: > 100 µM
NCI-H460 lung
  TGI: > 100 µM
NCI-H522 lung
  TGI: > 100 µM
NCI/ADR-RES ovarian
  TGI: > 100 µM
OVCAR-3 ovarian
  TGI: > 100 µM
OVCAR-4 ovarian
  TGI: > 100 µM
OVCAR-8 ovarian
  TGI: > 100 µM
PC-3 prostate
  TGI: > 100 µM
RPMI-8226 leukemia
  TGI: > 100 µM
RXF 393 renal
  TGI: > 100 µM
SF-268 CNS
  TGI: > 100 µM
SF-295 CNS
  TGI: > 100 µM
SF-539 CNS
  TGI: > 100 µM
SK-MEL-28 melanoma
  TGI: > 100 µM
SK-MEL-5 melanoma
  TGI: > 100 µM
SK-OV-3 ovarian
  TGI: > 100 µM
SN12C renal
  TGI: > 100 µM
SNB-19 CNS
  TGI: > 100 µM
SNB-75 CNS
  TGI: > 100 µM
SR leukemia
  TGI: > 100 µM
SW-620 colon
  TGI: > 100 µM
T-47D breast
  TGI: > 100 µM
TK-10 renal
  TGI: > 100 µM
U251 CNS
  TGI: > 100 µM
UACC-257 melanoma
  TGI: > 100 µM
UACC-62 melanoma
  TGI: > 100 µM
UO-31 renal
  TGI: > 100 µM

## Fc1cccc(F)c1C1SCc2nc3cc(Cl)ccc3n21 (centres undefined)
786-0 renal
  TGI: > 71.1 µM
A549 NSCLC
  TGI: > 100 µM
ACHN renal
  TGI: > 100 µM
BT-549 breast
  TGI: > 45.6 µM
CAKI-1 renal
  TGI: > 65.9 µM
CCRF-CEM leukemia
  TGI: > 100 µM
COLO 205 colon
  TGI: 36.6 µM
DU-145 prostate
  TGI: > 100 µM
EKVX NSCLC
  TGI: > 100 µM
HCC-2998 colon
  TGI: 42.6 µM
HCT-116 colon
  TGI: 37 µM
HCT-15 colon
  TGI: > 100 µM
HL-60(TB) leukemia
  TGI: 41.3 µM
HOP-62 NSCLC
  TGI: > 100 µM
HOP-92 NSCLC
  TGI: > 100 µM
HS 578T breast
  TGI: > 73.4 µM
HT29 colon
  TGI: 31.3 µM
IGROV1 ovarian
  TGI: > 72.4 µM
K-562 leukemia
  TGI: > 100 µM
KM12 colon
  TGI: 72.9 µM
LOX IMVI melanoma
  TGI: 40 µM
M14 melanoma
  TGI: > 100 µM
MALME-3M melanoma
  TGI: > 31.6 µM
MCF7 breast
  TGI: 34 µM
MDA-MB-231 breast
  TGI: > 100 µM
MDA-MB-435
  TGI: > 100 µM
MDA-N
  TGI: > 100 µM
MOLT-4 leukemia
  TGI: 54.7 µM
NCI-H23 lung
  TGI: > 100 µM
NCI-H460 lung
  TGI: > 100 µM
NCI-H522 lung
  TGI: > 100 µM
NCI/ADR-RES ovarian
  TGI: > 100 µM
OVCAR-3 ovarian
  TGI: > 100 µM
OVCAR-4 ovarian
  TGI: > 100 µM
OVCAR-5 ovarian
  TGI: > 100 µM
OVCAR-8 ovarian
  TGI: > 100 µM
PC-3 prostate
  TGI: > 100 µM
RPMI-8226 leukemia
  TGI: 69.2 µM
RXF 393 renal
  TGI: > 100 µM
SF-268 CNS
  TGI: > 100 µM
SF-295 CNS
  TGI: > 70.2 µM
SF-539 CNS
  TGI: > 100 µM
SK-MEL-2 melanoma
  TGI: > 100 µM
SK-MEL-28 melanoma
  TGI: > 100 µM
SK-MEL-5 melanoma
  TGI: 30.3 µM
SK-OV-3 ovarian
  TGI: > 100 µM
SN12C renal
  TGI: > 100 µM
SNB-19 CNS
  TGI: > 100 µM
SNB-75 CNS
  TGI: > 100 µM
SR leukemia
  TGI: 65.7 µM
SW-620 colon
  TGI: > 100 µM
T-47D breast
  TGI: > 100 µM
TK-10 renal
  TGI: > 100 µM
U251 CNS
  TGI: > 31.6 µM
UACC-257 melanoma
  TGI: > 60.6 µM
UACC-62 melanoma
  TGI: > 100 µM
UO-31 renal
  TGI: > 47.2 µM
